# Assay results from article PMC6514812, “[^18F]Fluoroethyltriazolyl Monocyclam Derivatives as Imaging Probes for the Chemokine Receptor CXCR4” (Molecules, 2019).
# Key:
# CXCR4 [1] = target: T1, CXCR4 (Homo sapiens, UniProt P61073); assay: Competition binding assay vs [^68Ga]Pentixafor in PC3-CXCR4 cells; conditions: for IC50: vs 100 nM [^68Ga]Pentixafor, PC3-CXCR4 cells, 60 min 37 °C; for Hill Slope, Competitive Binding Experiment: vs [^68Ga]Pentixafor, value ± SD
# T1 construct: expressed in transfected cells; host or cells: PC3 (human prostate cancer) cells stably transduced with CXCR4
# T1 sequence (P61073 whole entry): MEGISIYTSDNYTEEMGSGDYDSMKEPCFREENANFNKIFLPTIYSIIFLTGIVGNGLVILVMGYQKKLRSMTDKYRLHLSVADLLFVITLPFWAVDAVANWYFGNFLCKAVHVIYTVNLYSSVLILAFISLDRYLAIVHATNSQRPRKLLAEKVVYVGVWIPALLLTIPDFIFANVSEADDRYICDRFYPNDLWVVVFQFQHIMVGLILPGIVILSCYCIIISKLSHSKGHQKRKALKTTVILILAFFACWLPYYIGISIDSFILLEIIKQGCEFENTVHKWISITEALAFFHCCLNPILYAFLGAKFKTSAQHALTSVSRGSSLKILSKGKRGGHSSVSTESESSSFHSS
# Experimental: (§1) PC3-CXCR4 cells were plated in 12-well plates at a density of 500,000 cells per well and incubated for 48 h at 37 °C/5% CO2. Prior to the binding assay the cells were incubated in fresh media and 370–555 kBq of [^68Ga]Pentixafor or [^18F]RPS-544 was added to each well. The corresponding concentration of [^68Ga]Pentixafor in each well was 100 nM, and the concentration of [^18F]RPS-544 was approximately 5 pM. Then non-radioactive ligands were added to give a final ligand concentration in the range 0.001–10,000 nM. A total of eight concentrations were studied, and each concentration was tested in triplicate. The cells were incubated for 60 min at 37 °C/5% CO2. The media was removed under suction, the cells were washed with cold PBS 1X and detached and transferred to tubes for counting in 1 M NaOH. The cells were counted in a Wizard^2 Gamma Counter (PerkinElmer, Waltham, MA, USA). Non-specific binding was subtracted, and the IC50 values were determined by assuming a simple competitive binding interaction and fitting the data to a sigmoidal Hill plot in Origin 9.0 (OriginLab, Northampton, MA, USA). Potencies are expressed as IC50 ± standard deviation (Supplemental Data, Figure S7).
# CXCR4 [2] = target: T1, CXCR4; assay: Saturation binding assay in PC3-CXCR4 cells; conditions: for Kd: saturation binding, PC3-CXCR4 cells; for Hill Slope, Saturation Binding Experiment: value ± SD
# Experimental: To determine the dissociation constants, saturation binding assays were performed in the PC3-CXCR4 cells. The cells were plated as described above, and approximately 5 nM of the radioligand was added to each well. Then the corresponding non-radioactive ligand was added to give a final concentration in the range 0.001–10,000 nM. A total of eight concentrations were tested, and each concentration was tested in triplicate. The samples were washed and counted as described above. Non-specific binding was subtracted, and Kd values were determined by performing a nonlinear one site binding curve fit with equation y = (Bmax · x)/(Kd + x). Values are expressed as Kd ± standard deviation (Supplemental Data, Figure S8).
# PC3-CXCR4 cells [3] = assay: Cell-associated activity in PC3-CXCR4 cells; format: cell-based, human; conditions: 1 h
# Experimental: Maximum cell-associated activity was calculated by subtracting the cell uptake of the radioactive ligand at the highest non-radioactive ligand concentration of 10 µM (which we considered to be non-specific uptake/binding) from the cell uptake at the lowest non-radioactive ligand concentration of 10^−5 µM.
# [4] = Biodistribution in mice bearing bilateral PC3-WT/PC3-CXCR4 xenograft tumors; format: in vivo, BALB/c mice
# Experimental: (§2) All animal studies were approved by the Institutional Animal Care and Use Committee of Weill Cornell Medicine (Protocol Number: 2015-0066) and were undertaken in accordance with the guidelines set forth by the USPHS Policy on Humane Care and Use of Laboratory Animals. Animals were housed under standard conditions in approved facilities with 12 h light/dark cycles. Food and water was provided ad libitum throughout the course of the studies. Hairless 6-to-8-week old male BALB/c inbred athymic nude mice (Jackson Laboratory, Bar Harbor, ME, USA) were inoculated bilaterally with 0.2 mL of a 1:1 mixture of 10^7 PC3-CXCR4 cells in PBS and Matrigel (Corning, Tewksbury, MA, USA) subcutaneously in the left shoulder and 0.2 mL of a 1:1 mixture of 10^7 PC3-WT cells in PBS and Matrigel subcutaneously in the right shoulder. Imaging and biodistribution studies were performed three weeks post-implantation, when tumors were approximately 100–300 mm^3.
# (§3) For the biodistribution studies, tumor-bearing animals (n = 5/compound/time point) were injected intravenously with 50–100 μL of a 9% v/v EtOH/saline solution containing approximately 1.1 MBq of the radioligand. […] The mice were euthanized at 1 or 2 h p.i. and tissues including blood, heart, lungs, liver, small intestine, large intestine, stomach (with contents), spleen, pancreas, kidneys, muscle, bone, PC3-WT tumors, PC3-CXCR4 tumors, and tail were collected. All organs were weighed and placed in test tubes for counting in a Wizard^2 Gamma Counter (PerkinElmer, Waltham, MA, USA). For comparison, 1% injected activity standards were prepared and counted along with the tissue samples. The tails were counted to correct for any dose extravasation. Activity in each tissue was corrected for decay and for injected activity and expressed as percent injected dose per gram of tissue (%ID/g) ± standard error.
# [5] = test system: PC3-CXCR4 xenograft tumors; assay: as above; format: in vivo, BALB/c mice
# Experimental: as §2, §3
# CXCR4 [6] = target: T1, CXCR4; assay: Competition binding assay vs [^18F]RPS-544 in PC3-CXCR4 cells; conditions: approx. 5 pM [^18F]RPS-544; p = 0.85
# Experimental: as §1
# PC3-CXCR4 cells [7] = assay: Internalization in PC3-CXCR4 cells; format: cell-based, human; conditions: after 135 min incubation
# Experimental: Internalization studies were performed for [^18F]RPS-534 and [^18F]RPS-547 in a time dependent manner. PC3-CXCR4 cells were plated as described above in 12-well plates and incubated for 48 h prior to the experiment. The media was exchanged and [^18F]RPS-534 or [^18F]RPS-547 (10^−5 μM; approximately 400 kBq) was added to each well. All experiments were performed in triplicate. […] Then the media was removed under suction at the corresponding temperature, and the cells washed with 1 mL PBS. Cell surface-bound activity was collected by two successive 5 min incubations of 0.5 mL of a 50 mM glycine buffer (pH = 2.8) performed at 4 °C or 37 °C. The cells were then washed with 1 mL ice-cold PBS and detached with 1 mL ice cold 1 M NaOH. Detached cells were collected and counted along with the washes. An aliquot of the administered radioactivity (10% IA) was also counted and used for quantification. The activity found in the NaOH fractions of the 4 °C plates was subtracted from the activities of the fractions at 37 °C to correct for non-specific binding. Internalized activity was expressed as the fraction of activity in the NaOH fraction relative to the total activity added.
# [8] = 1 h p.i., blocked by co-injection of 5 mg/kg AMD-3100
structure (smiles),measurement,setting,value
FCCn1cc(-c2cc(CNCc3ccccn3)ccc2CN2CCCNCCNCCCNCC2)nn1 [RPS-533],IC50,CXCR4 [1],0.356 ± 0.1 µM
same,"Hill Slope, Competitive Binding Experiment",CXCR4 [1],1.07 ± 0.36
same,Kd,CXCR4 [2],0.366 ± 0.07 µM
same,"Hill Slope, Saturation Binding Experiment",CXCR4 [2],1.12 ± 0.05
same,Cell-Associated Activity,PC3-CXCR4 cells [3],2.1 ± 0.4 %IA
same,Blood tissue activity,[4]; 1 h p.i.,0.30±0.06 %ID/g
same,Bone tissue activity,[5]; 1 h p.i.,1.22±0.03 %ID/g
same,Heart tissue activity,[5]; 1 h p.i.,0.57±0.05 %ID/g
same,Kidneys tissue activity,[5]; 1 h p.i.,12.17 ± 0.78 %ID/g
same,Large Intestine tissue activity,[5]; 1 h p.i.,0.23±0.02 %ID/g
same,Liver tissue activity,[5]; 1 h p.i.,3.69±0.21 %ID/g
same,Lungs tissue activity,[5]; 1 h p.i.,0.60±0.08 %ID/g
same,Muscle tissue activity,[5]; 1 h p.i.,0.67±0.08 %ID/g
same,PC3-CXCR4 Tumor Uptake,[5]; 1 h p.i.,1.93 ± 0.18 %ID/g
same,PC3-CXCR4 Tumor-to-Tissue Ratio Blood,[5]; 1 h p.i.,6.9 ± 0.2
same,PC3-CXCR4 Tumor-to-Tissue Ratio Bone,[5]; 1 h p.i.,1.4 ± 0.7
same,PC3-CXCR4 Tumor-to-Tissue Ratio Kidneys,[5]; 1 h p.i.,0.2 ± 0.1
same,PC3-CXCR4 Tumor-to-Tissue Ratio Liver,[5]; 1 h p.i.,0.5 ± 0.1
same,PC3-CXCR4 Tumor-to-Tissue Ratio Lungs,[5]; 1 h p.i.,3.3 ± 0.4
same,PC3-CXCR4 Tumor-to-Tissue Ratio Muscle,[5]; 1 h p.i.,2.2 ± 0.3
same,PC3-CXCR4 Tumor-to-Tissue Ratio PC3-WT,[5]; 1 h p.i.,2.0 ± 0.4
same,PC3-WT tumor activity,[5]; 1 h p.i.,0.91±0.19 %ID/g
same,Pancreas tissue activity,[5]; 1 h p.i.,0.44±0.02 %ID/g
same,Small Intestine tissue activity,[5]; 1 h p.i.,2.19±0.05 %ID/g
same,Spleen tissue activity,[5]; 1 h p.i.,0.52±0.02 %ID/g
same,Stomach tissue activity,[5]; 1 h p.i.,0.17±0.04 %ID/g
same,IC50 vs [^18F]RPS-544 compared with IC50 vs [^68Ga]Pentixafor,CXCR4 [6],not significantly different
FCCn1cc(-c2cc(CN3CCCNCCNCCCNCC3)ccc2CNCc2ccccn2)nn1 [RPS-534],decrease in affinity relative to RPS-544,CXCR4 [1],30 fold
same,IC50,CXCR4 [1],0.218 ± 0.038 µM
same,"Hill Slope, Competitive Binding Experiment",CXCR4 [1],1.15 ± 0.34
same,Kd,CXCR4 [2],0.176 ± 0.03 µM
same,"Hill Slope, Saturation Binding Experiment",CXCR4 [2],1.05 ± 0.15
same,Cell-Associated Activity,PC3-CXCR4 cells [3],18.5 ± 3.7 %IA
same,internalized activity,PC3-CXCR4 cells [7],approximately 2 %IA
same,internalized share of total cell-associated activity,PC3-CXCR4 cells [7],approximately 7%
same,Blood tissue activity,[4]; 1 h p.i.,0.30±0.08 %ID/g
same,Blood tissue activity,[4]; [8],0.26±0.15 %ID/g
same,Blood tissue activity,[4]; 2 h p.i.,0.08±0.02 %ID/g
same,Bone tissue activity,[5]; 1 h p.i.,1.44±0.04 %ID/g
same,Heart tissue activity,[5]; 1 h p.i.,0.25±0.01 %ID/g
same,Kidneys tissue activity,[5]; 1 h p.i.,7.43±0.96 %ID/g
same,Large Intestine tissue activity,[5]; 1 h p.i.,0.29±0.06 %ID/g
same,Liver tissue activity,[5]; 1 h p.i.,19.14 ± 0.42 %ID/g
same,Lungs tissue activity,[5]; 1 h p.i.,1.01±0.09 %ID/g
same,Muscle tissue activity,[5]; 1 h p.i.,0.19±0.03 %ID/g
same,PC3-CXCR4 Tumor Uptake,[5]; 1 h p.i.,7.20 ± 0.30 %ID/g
same,PC3-CXCR4 Tumor-to-Tissue Ratio Blood,[5]; 1 h p.i.,27.5 ± 0.4
same,PC3-CXCR4 Tumor-to-Tissue Ratio Bone,[5]; 1 h p.i.,5.7 ± 0.4
same,PC3-CXCR4 Tumor-to-Tissue Ratio Kidneys,[5]; 1 h p.i.,1.1 ± 0.4
same,PC3-CXCR4 Tumor-to-Tissue Ratio Liver,[5]; 1 h p.i.,0.4 ± 0.2
same,PC3-CXCR4 Tumor-to-Tissue Ratio Lungs,[5]; 1 h p.i.,8.0 ± 0.4
same,PC3-CXCR4 Tumor-to-Tissue Ratio Muscle,[5]; 1 h p.i.,42.4 ± 0.1
same,PC3-CXCR4 Tumor-to-Tissue Ratio PC3-WT,[5]; 1 h p.i.,2.5 ± 0.4
same,PC3-WT tumor activity,[5]; 1 h p.i.,2.85±0.22 %ID/g
same,Pancreas tissue activity,[5]; 1 h p.i.,0.28±0.02 %ID/g
same,Small Intestine tissue activity,[5]; 1 h p.i.,3.67±0.44 %ID/g
same,Spleen tissue activity,[5]; 1 h p.i.,2.49±0.04 %ID/g
same,Stomach tissue activity,[5]; 1 h p.i.,0.16±0.03 %ID/g
same,Bone tissue activity,[5]; [8],0.44±0.15 %ID/g
same,Heart tissue activity,[5]; [8],0.13±0.04 %ID/g
same,Kidneys tissue activity,[5]; [8],5.10±0.33 %ID/g
same,Large Intestine tissue activity,[5]; [8],0.40±0.58 %ID/g
same,Liver tissue activity,[5]; [8],12.01 ± 4.67 %ID/g
same,Lungs tissue activity,[5]; [8],0.48±0.08 %ID/g
same,Muscle tissue activity,[5]; [8],0.17±0.16 %ID/g
same,PC3-CXCR4 tumor activity,[5]; [8],2.01±0.93 %ID/g
same,PC3-WT tumor activity,[5]; [8],1.21±0.47 %ID/g
same,Pancreas tissue activity,[5]; [8],0.32±0.01 %ID/g
same,Small Intestine tissue activity,[5]; [8],5.35±1.74 %ID/g
same,Spleen tissue activity,[5]; [8],0.12±0.03 %ID/g
same,Stomach tissue activity,[5]; [8],0.14±0.11 %ID/g
same,Bone tissue activity,[5]; 2 h p.i.,1.26±0.06 %ID/g
same,Heart tissue activity,[5]; 2 h p.i.,0.14±0.02 %ID/g
same,Kidneys tissue activity,[5]; 2 h p.i.,5.05±0.80 %ID/g
same,Large Intestine tissue activity,[5]; 2 h p.i.,4.60±0.57 %ID/g
same,Liver tissue activity,[5]; 2 h p.i.,18.60±1.74 %ID/g
same,Lungs tissue activity,[5]; 2 h p.i.,0.59±0.03 %ID/g
same,Muscle tissue activity,[5]; 2 h p.i.,0.11±0.03 %ID/g
same,PC3-CXCR4 Tumor-to-Tissue Ratio Blood,[5]; 2 h p.i.,51.1 ± 0.2
same,PC3-CXCR4 Tumor-to-Tissue Ratio Bone,[5]; 2 h p.i.,3.5 ± 0.2
same,PC3-CXCR4 Tumor-to-Tissue Ratio Kidneys,[5]; 2 h p.i.,0.9 ± 0.2
same,PC3-CXCR4 Tumor-to-Tissue Ratio Liver,[5]; 2 h p.i.,0.2 ± 0.1
same,PC3-CXCR4 Tumor-to-Tissue Ratio Lungs,[5]; 2 h p.i.,7.1 ± 0.2
same,PC3-CXCR4 Tumor-to-Tissue Ratio Muscle,[5]; 2 h p.i.,38.8 ± 0.2
same,PC3-CXCR4 Tumor-to-Tissue Ratio PC3-WT,[5]; 2 h p.i.,2.5 ± 0.2
same,PC3-CXCR4 tumor activity,[5]; 2 h p.i.,4.31±0.47 %ID/g
same,PC3-WT tumor activity,[5]; 2 h p.i.,1.66±0.08 %ID/g
same,Pancreas tissue activity,[5]; 2 h p.i.,0.18±0.06 %ID/g
same,Small Intestine tissue activity,[5]; 2 h p.i.,1.53±0.25 %ID/g
same,Spleen tissue activity,[5]; 2 h p.i.,1.90±0.23 %ID/g
same,Stomach tissue activity,[5]; 2 h p.i.,0.12±0.05 %ID/g
same,reduction of tumor activity by blocking,[5]; blocking dose 5 mg/kg AMD-3100,approximately 70%
same,PC3-CXCR4 tumor uptake relative to [^18F]RPS-544,"[5]; mouse, in vivo",2 fold
same,tumor-to-heart ratio,"[5]; time not restated, follows the 1 h p.i. tumor-to-blood ratio",28.8 ± 0.3
same,IC50 vs [^18F]RPS-544 compared with IC50 vs [^68Ga]Pentixafor,CXCR4 [6],not significantly different
